Reference: article PMC11346428, “Biophysical and structural analyses of the interaction between the SHANK1 PDZ domain and an internal SLiM” (Biochemical Journal, 2024)
Residues, ends and D or L forms follow the SMILES beside them. *: point of attachment. 5FAM = O=C1OC2(c3ccc(O)cc3Oc3cc(O)ccc32)c2ccc(C(=O)*)cc21; Ahx = NCCCCCC(=O)O

Key:
[1] = molecular target: T1, SHANK1 PDZ domain (656–762) (Homo sapiens, UniProt Q9Y566); test: Fluorescence anisotropy direct titration; assay type: binding; details: 50 mM NH4OAc, pH 6.5
T1 construct: Human SHANK1 PDZ domain (656–762) was prepared as described previously; GST (N, cleaved yes); made in house; host or cells: E. coli BL21 Gold (pGEX-6P-2)
T1 sequence (Q9Y566 656-762): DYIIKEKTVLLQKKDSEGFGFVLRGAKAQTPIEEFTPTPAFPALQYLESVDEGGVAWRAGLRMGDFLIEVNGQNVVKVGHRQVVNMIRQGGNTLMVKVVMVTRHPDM
Description: Direct titration assays were performed in 384-well plates (Greiner Bio-one). Two hundred micromolars of SHANK1 protein was dialyzed into the assay buffer before use. Twenty microlitres of the assay buffer (50 mM ammonium-acetate, pH 6.5) was first added to each well. Twenty microlitres of the target protein sample was then added to the first column, followed by a two-fold serial dilution over 24 points. Twenty microlitres of 50 nM tracer peptide or 20 µl of the assay buffer was added to the corresponding row wells. The titration was performed in triplicate. […] The P (perpendicular intensity) and S (parallel intensity) channels raw data were obtained. The data processing and formulae are shown in the Supporting Information 2.6.
(§1) . Reversed Phase C18 column, mobile phase A (0.1% TFA in water), mobile phase B
2.6 Equations for data calculation in fluorescent anisotropy direct titration The intensity and anisotropy were calculated by using Equations 1 and 2. The data was fitted to a sigmoidal logistic model to obtain r min and rmax, and the L b was further calculated (Equation 3). Finally, the data was fitted to a nonlinear curve model (Equation 4), to obtain the value of KD.
I = total intensity, r = anisotropy, P = perpendicular intensity, S = parallel intensity, G is an instrument gain factor, L b = fraction ligand bound, λ = Ibound/Iunbound = 1, [FL] = concentration of fluorescent ligand, k = K D and x = [added titrant].
2.7 Equations for data calculation in fluorescent anisotropy competition assays The calculated average anisotropy values and their standard deviation were fitted using a sigmoidal logistic model (Equation 5). y = r = anisotropy, xo = mid-point of the curve between the r max and rmin plateau. […]

[2] = molecular target: T1, SHANK1 PDZ domain (656–762); test: Isothermal titration calorimetry (ITC); details: 25 mM Tris, pH 7.5, 150 mM NaCl, 25°C; 500 μM peptide injected into 50 μM protein; one-binding site model
Description: A Microcal ITC200i instrument (Malvern) was employed to carry out the ITC experiments. Prior to use, SHANK1 protein was dialyzed against 20 mM Tris, 150 mM NaCl, pH 7.5 buffer. […] Sixty microlitres of every test peptide was placed in the syringe to titrate against 350 µl of 50 µM Shank1 protein in the cell. The injection volumes were 2 µl each, injection time 6 s, and a 120 s delay between each injection for 20 injections in total. The titration for peptide into buffer was subtracted from the titration for peptide into protein to account for the heat of peptide dilution. Raw data was processed in the software Microcal Origin 8 and fit to a one-binding site model.

[3] = molecular target: T1, SHANK1 PDZ domain (656–762); test: Fluorescence anisotropy competition assay; assay type: binding; details: 50 nM tracer, 1 μM SHANK1, 50 mM NH4OAc, pH 6.5, triplicate
Description: FA competition assays were also performed in 50 mM NH4OAc, pH 6.5 buffer in 384-well plates. Twenty microlitres of the assay buffer was first added to wells. Twenty microlitres of 5000 µM competitor peptides was added to the first columns, followed by a twofold serial dilution over 16 points. Three micromolars of SHANK1 protein was dialyzed into the assay buffer before use. Twenty microlitres of the SHANK1 protein was added to each well to give a final protein concentration of 1 μM. Twenty microlitres of 50 nM tracer peptides or 20 µl of the assay buffer was added to corresponding row wells. The titration was performed in triplicate. Plates were read immediately with an excitation and emission wavelength of 480 and 535 nm respectively (dichroic mirror 505 nm), and after an hour or after 24 h on the plate reader with the same parameters as described above. The data processing and formulae are shown in the Supporting Information 2.7.
Time (min) Mobile phase A (%) Mobile phase B (%) Flow (mL/min) […]
as §1
2.6 Equations for data calculation in fluorescent anisotropy direct titration The intensity and anisotropy were calculated by using Equations 1 and 2. The data was fitted to a sigmoidal logistic model to obtain r min and rmax, and the L b was further calculated (Equation 3). […]

Ac-EESTSFQGP-CONH2 = molecular target: T2, Ac-EESTSFQGP-CONH2; test: fluorescence anisotropy competition (tracer FAM-Ahx-EESTSFQGP-CONH2)
T2 chain: Ac-EESTSFQGP-NH2

FAM-Ahx-EESTSFQGP-CONH2 = molecular target: T3, FAM-Ahx-EESTSFQGP-CONH2; test: fluorescence anisotropy direct titration
T3 chain: {FAM-Ahx}-EESTSFQGP-NH2

[4] = 50 nM labelled peptide as tracer, plates read after 24 hr incubation at room temperature, read-out: KD (FA direct titration, Figure S1)

How did the Kd ([1]; FA direct titration of SHANK1 into 50 nM tracer peptide, 25°C, triplicate, read-out: KD) turn out when `C[C@@H](O)[C@H](NC(=O)[C@H](CO)NC(=O)[C@H](CCC(=O)O)NC(=O)[C@H](CCC(=O)O)NC(=O)CCCCCNC(=O)c1ccc2c(c1)C(=O)OC21c2ccc(O)cc2Oc2cc(O)ccc21)C(=O)N[C@@H](CO)C(=O)N[C@@H](Cc1ccccc1)C(=O)N[C@@H](CCC(N)=O)C(=O)NCC(=O)N1CCC[C@H]1C(N)=O` ({5FAM-Ahx}-EESTSFQGP-NH2) was run?
Its Kd is 0.81 ± 0.08 µM.

Which Kd [1, 4] does the source give for `CC[C@H](C)[C@H](NC(=O)[C@H](CC(C)C)NC(=O)[C@H](CCC(=O)O)NC(=O)[C@@H]1CCCN1C(=O)[C@H](Cc1ccccc1)NC(=O)CCCCCNC(=O)c1ccc2c(c1)C(=O)OC21c2ccc(O)cc2Oc2cc(O)ccc21)C(=O)N[C@@H](CCC(N)=O)C(=O)N[C@@H](CC(=O)O)C(=O)N[C@H](C(=O)N[C@@H](CO)C(=O)N[C@H](C(=O)N[C@@H](CO)C(=O)N[C@@H](Cc1ccccc1)C(=O)N[C@@H](CO)C(=O)N[C@H](C(=O)N[C@H](C(=O)N[C@@H](CCCNC(=N)N)C(N)=O)[C@@H](C)O)[C@@H](C)O)[C@@H](C)O)[C@@H](C)O` [FAM-Ahx-ARAP31414-1429-CONH2] ({5FAM-Ahx}-FPELIQDTSTSFSTTR-NH2) here?
The Kd was 12.2 ± 8.3 µM.

Which Kd [1, 4] does the source give for `CC(C)[C@H](NC(=O)CNC(=O)[C@H](CCC(N)=O)NC(=O)[C@H](Cc1ccccc1)NC(=O)[C@H](CO)NC(=O)[C@@H](NC(=O)[C@H](CO)NC(=O)[C@H](CCC(=O)O)NC(=O)CCCCCNC(=O)c1ccc2c(c1)C(=O)OC21c2ccc(O)cc2Oc2cc(O)ccc21)[C@@H](C)O)C(=O)N[C@@H](CCCCN)C(=O)N[C@@H](CO)C(=O)NCC(=O)N1CCC[C@H]1C(=O)N[C@H](C(=O)N[C@@H](CO)C(=O)N[C@H](C(=O)N[C@@H](C)C(N)=O)C(C)C)C(C)C` [FAM-Ahx-ELFN1579-594-CONH2] ({5FAM-Ahx}-ESTSFQGVKSGPVSVA-NH2) here?
Its Kd is 3.6 ± 0.7 µM.

With Ac-EESTSFQGP-NH2 as the molecule, how does the Kd [2] read?
The Kd was 0.96 µM.

What about the IC50 ([3]; competition against SHANK1/FAM-Ahx-EESTSFQGP-CONH2 interaction) of the same molecule?
The IC50 was 3.9 ± 0.1 µM.

And the IC50 ([3]; competition against SHANK1/FITC-Ahx-EAQTRL-COOH interaction)?
The IC50 was 3.3 ± 0.2 µM.

B1: SHANK1 PDZ domain 656-762 (protein)
chain: T1 sequence (Q9Y566 656-762)
With B1 as the molecule, how does the IC50 (Ac-EESTSFQGP-CONH2) read?
The IC50 was 3.9 µM.

And the Kd (FAM-Ahx-EESTSFQGP-CONH2)?
The Kd was 0.81 µM.
